pIC50: −log10 of the molar value.
Columns and labels:
[1] = target: T1, P. falciparum 2-trans-enoyl-ACP reductase (PfENR) (Plasmodium falciparum, UniProt C6KSZ2); assay: NADH consumption enzymatic assay ([…] nm) with crotonyl-CoA, purified recombinant PfENR; positive control inhibitor; format: biochemical
T1 construct: gene PF3D7_0615100; recombinant His-tagged PfENR (pGS-21a, E. coli BL21(DE3))
T1 sequence (C6KSZ2 96-432): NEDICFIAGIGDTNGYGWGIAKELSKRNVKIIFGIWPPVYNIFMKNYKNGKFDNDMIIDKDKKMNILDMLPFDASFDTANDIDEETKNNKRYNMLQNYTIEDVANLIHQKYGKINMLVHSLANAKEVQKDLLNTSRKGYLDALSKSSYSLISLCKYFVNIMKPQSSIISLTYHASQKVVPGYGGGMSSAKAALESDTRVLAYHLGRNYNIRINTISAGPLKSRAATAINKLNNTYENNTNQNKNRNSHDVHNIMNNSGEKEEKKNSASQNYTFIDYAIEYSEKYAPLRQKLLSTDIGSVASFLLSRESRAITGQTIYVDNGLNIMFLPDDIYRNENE

[2] = target: T1, P. falciparum 2-trans-enoyl-ACP reductase (PfENR); assay: NADH consumption enzymatic assay ([…] nm) with crotonyl-CoA, purified recombinant PfENR; format: biochemical

| Structure (SMILES) | pIC50 [1] | pIC50 [2] |
| --- | --- | --- |
| Oc1cc(Cl)ccc1Oc1ccc(Cl)cc1Cl [TCL, Triclosan] | 5.45 |  |
| CCc1ccc(Oc2ccc(NS(=O)(=O)c3ccc4ccccc4c3)cc2)cc1 [LG2, N-[4-(4-ethylphenoxy)phenyl]naphthalene-2-sulfonamide] |  | 5.40 |

Reference: publication PMC11137734, “Exploring Novel Antimalarial Compounds Targeting Plasmodium falciparum Enoyl-ACP Reductase: Computational and Experimental Insights” (ACS Omega, 2024)
